Measured values from patent US7960129B2, “Assays and methods for determining STIM2 activity” (The Queen's Medical Center, priority 2007, dated 2011).
Like-named read-outs stand apart in the source and are kept apart here.

Legend:
[1] = target: T1, STIM2+CRACM1-expressing HEK293 cells (Homo sapiens, UniProt Q9P246); assay: Whole-cell patch-clamp of CRAC currents in STIM2+CRACM1 cells; format: cell-based; conditions: for suppression of the secondary phase of CRAC current: added to pipette solution: ATP 3 mM, GTP 0.3 mM, calmodulin 100 μM, [Ca2+]i 150 nM
T1 construct: expressed in transfected cells; host or cells: HEK293
Description: Patch-clamp experiments were performed in the tight-seal whole-cell configuration at 21-25° C. High-resolution current recordings were acquired using the EPC-9 (HEKA). Voltage ramps of 50 ms duration spanning a range of −100 to +100 mV were delivered from a holding potential of 0 mV at a rate of 0.5 Hz over a period of 100-700 sec. All voltages were corrected for a liquid junction potential of 10 mV (3 mV with Cl^− as main internal anion). Currents were filtered at 2.9 kHz and digitized at 100 μs intervals. Capacitive currents were determined and corrected before each voltage ramp. Extracting the current amplitude at −80 mV from individual ramp current records assessed the low-resolution temporal development of currents. Where applicable, statistical errors of averaged data are given as means±S.E.M. with n determinations. Standard external solutions were as follows (in mM): 120 NaCl, 10 CsCl, 2.8 KCl, 2 MgCl2, 10 CaCl2, 10 TEA-Cl, 10 HEPES, 10 glucose, pH 7.2 with NaOH, 300 mOsm. In some experiments, 2 μM or 50 μM 2-aminoethyldiphenyl borate (2-APB) or 10 μM G418 were added to the standard external solution and applied through wide-tipped puffer pipettes. Standard internal solutions were as follows (in mM): 120 Cs-glutamate, 8 NaCl, 10 Cs-BAPTA, 3 MgCl2, 10 HEPES, 0.02 IP3, pH 7.2 with CsOH, 300 mOsm. As indicated in the figure legends, for some experiments [Ca^2+]i was buffered to 150 nM by 20 mM Cs•BAPTA and 8 mM CaCl2 or 20 mM Cs•EGTA and 8.9 mM CaCl2. For passive-depletion experiments, the internal solution was supplemented with Cs•BAPTA in the absence of IP3 and Ca^2+. In some experiments, Cs-glutamate and Cs•BAPTA were equimolarly replaced by KCl and K•BAPTA. In others, G418, Na•ATP and Na•GTP or calmodulin were added to intracellular solutions as specified in the figure legends. All chemicals were purchased from Sigma-Aldrich Co.

CRAC currents = conditions: cited from earlier work; for doses that inhibit CRAC currents: high doses
[2] = target: T2, STIM1+CRACM1-expressing HEK293 cells (Homo sapiens, UniProt Q13586+Q96D31); assay: Whole-cell patch-clamp of CRAC currents in STIM1+CRACM1 cells; format: cell-based; conditions: 50 μM 2-APB; no IP3, [Ca2+]i buffered to 150 nM
T2 construct: expressed in transfected cells; host or cells: HEK293
Description: Patch-clamp experiments were performed in the tight-seal whole-cell configuration at 21-25° C. High-resolution current recordings were acquired using the EPC-9 (HEKA). […] Currents were filtered at 2.9 kHz and digitized at 100 μs intervals. Capacitive currents were determined and corrected before each voltage ramp. Extracting the current amplitude at −80 mV from individual ramp current records assessed the low-resolution temporal development of currents. […] All chemicals were purchased from Sigma-Aldrich Co.

T1 sequence (Q9P246 15-746): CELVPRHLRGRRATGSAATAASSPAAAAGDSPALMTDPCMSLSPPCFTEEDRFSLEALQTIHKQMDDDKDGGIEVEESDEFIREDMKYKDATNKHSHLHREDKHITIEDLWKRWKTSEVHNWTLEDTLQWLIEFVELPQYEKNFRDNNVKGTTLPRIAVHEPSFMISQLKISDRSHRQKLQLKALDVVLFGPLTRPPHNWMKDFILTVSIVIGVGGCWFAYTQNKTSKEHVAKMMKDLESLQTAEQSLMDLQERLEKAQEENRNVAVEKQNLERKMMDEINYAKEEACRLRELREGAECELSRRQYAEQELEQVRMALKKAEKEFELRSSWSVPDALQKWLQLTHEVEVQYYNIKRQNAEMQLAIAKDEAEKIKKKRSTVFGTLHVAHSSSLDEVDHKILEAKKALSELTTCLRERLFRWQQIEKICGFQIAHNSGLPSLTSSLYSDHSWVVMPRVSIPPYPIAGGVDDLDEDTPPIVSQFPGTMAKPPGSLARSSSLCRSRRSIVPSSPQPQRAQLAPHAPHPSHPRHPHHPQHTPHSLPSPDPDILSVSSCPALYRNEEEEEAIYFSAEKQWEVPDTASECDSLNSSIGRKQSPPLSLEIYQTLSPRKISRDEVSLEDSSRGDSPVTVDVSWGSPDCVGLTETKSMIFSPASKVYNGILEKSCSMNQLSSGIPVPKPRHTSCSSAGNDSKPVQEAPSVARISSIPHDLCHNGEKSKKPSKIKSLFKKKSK
T2 sequence (Q13586 23-685): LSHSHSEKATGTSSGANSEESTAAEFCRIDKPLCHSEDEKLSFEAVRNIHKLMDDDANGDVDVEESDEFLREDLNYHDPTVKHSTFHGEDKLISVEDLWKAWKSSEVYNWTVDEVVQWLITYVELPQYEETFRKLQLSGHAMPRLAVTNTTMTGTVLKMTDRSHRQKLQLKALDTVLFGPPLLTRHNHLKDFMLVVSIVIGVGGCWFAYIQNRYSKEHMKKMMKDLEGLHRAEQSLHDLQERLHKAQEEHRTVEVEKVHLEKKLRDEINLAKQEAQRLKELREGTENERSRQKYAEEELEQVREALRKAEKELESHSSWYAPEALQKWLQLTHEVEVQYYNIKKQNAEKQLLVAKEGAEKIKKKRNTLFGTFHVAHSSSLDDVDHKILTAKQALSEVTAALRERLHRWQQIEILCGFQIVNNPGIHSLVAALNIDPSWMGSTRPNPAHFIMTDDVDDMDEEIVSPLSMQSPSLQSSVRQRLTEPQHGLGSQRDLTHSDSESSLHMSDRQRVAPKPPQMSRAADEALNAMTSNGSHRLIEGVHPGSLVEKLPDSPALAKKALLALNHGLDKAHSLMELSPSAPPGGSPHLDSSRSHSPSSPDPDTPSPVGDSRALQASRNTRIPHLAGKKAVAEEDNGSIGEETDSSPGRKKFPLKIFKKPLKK
T2 sequence (Q96D31 whole entry): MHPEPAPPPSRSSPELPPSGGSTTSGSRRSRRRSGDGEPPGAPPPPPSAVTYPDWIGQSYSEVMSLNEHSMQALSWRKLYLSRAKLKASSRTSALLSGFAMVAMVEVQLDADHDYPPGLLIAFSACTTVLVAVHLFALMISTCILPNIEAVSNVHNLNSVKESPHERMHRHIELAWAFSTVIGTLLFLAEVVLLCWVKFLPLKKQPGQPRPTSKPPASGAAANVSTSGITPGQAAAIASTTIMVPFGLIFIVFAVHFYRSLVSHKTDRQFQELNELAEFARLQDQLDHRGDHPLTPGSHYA

CN[C@@H]1[C@@H](O)[C@@H](O[C@@H]2[C@@H](O)[C@H](O[C@H]3O[C@H]([C@@H](C)O)[C@@H](O)[C@H](O)[C@H]3N)[C@@H](N)C[C@H]2N)OC[C@]1(C)O [G418]
IC50 [1]: 0.52 µM
IC50 ([1]; half-maximal inhibitory concentration for IP3-induced CRACM1 currents, cells perfused with G418, both phases of the current): 0.5 µM

NCCOB(c1ccccc1)c1ccccc1 [2-APB, 2-aminoethoxydiphenyl borate]
doses that inhibit CRAC currents (CRAC currents; unit as printed in b55): ≥ 10 mM
doses that inhibit CRAC currents (CRAC currents): ≥ 0.01 mM
doses with facilitatory effects on CRAC currents (CRAC currents; low doses): ≤ 5 µM
2-APB-induced current without store depletion [2]: not observed
CRAC currents activated by 2-APB ([1]; 50 μM 2-APB, stores depleted by IP3 or kept full ([Ca2+]i 150 nM), cells grown without G418): large, transient CRAC currents
CRACM1 currents induced by external application of 2-APB ([1]; 2 mM 2-APB as printed, cells grown in G418, no IP3-induced current): large CRACM1 currents
activation time of 2-APB-induced current ([1]; high-resolution recording at fixed membrane potential): within a few seconds
effect of 2-APB on G418-mediated suppression of CRAC currents ([1]; regardless of the filling state of stores): capable of overcoming the G418-mediated suppression

Nc1ncnc2c1ncn2[C@@H]1O[C@H](COP(=O)(O)OP(=O)(O)OP(=O)(O)O)[C@@H](O)[C@H]1O [ATP]
suppression of the secondary phase of CRAC current [1]: failed to suppress

Nc1nc2c(ncn2[C@@H]2O[C@H](COP(=O)(O)OP(=O)(O)OP(=O)(O)O)[C@@H](O)[C@H]2O)c(=O)[nH]1 [GTP]
suppression of the secondary phase of CRAC current [1]: failed to suppress

calmodulin
suppression of the secondary phase of CRAC current [1]: secondary phase was observed
